According to PubChem BioAssay (NCI):
Several values for one entry are separate records, joined by “and”; a condition that tells them apart may be missing. Identical values can stand only once.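 The compound was tested at five concentrations on cells cultured in 96-well plates, with a 48-hour exposure period. The concentration for 50% growth inhibition is given as GI50. At the TGI there is no net growth.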

Columns and labels:
Test in all cases: NCI tumour cell line growth inhibition, 48 h
A549 NSCLC = system: A549 NSCLC
DU-145 prostate = system: DU-145 prostate
EKVX NSCLC = system: EKVX NSCLC
HCC-2998 colon = system: HCC-2998 colon
HOP-62 NSCLC = system: HOP-62 NSCLC
KM12 colon = system: KM12 colon
MDA-MB-435 = system: MDA-MB-435
HS 578T breast = system: HS 578T breast
K-562 leukemia = system: K-562 leukemia
MOLT-4 leukemia = system: MOLT-4 leukemia

Row | Compound | TGI (A549 NSCLC) | TGI (DU-145 prostate) | GI50 (EKVX NSCLC) | TGI (EKVX NSCLC) | TGI (HCC-2998 colon) | TGI (HOP-62 NSCLC) | GI50 (KM12 colon) | TGI (KM12 colon) | GI50 (MDA-MB-435) | TGI (MDA-MB-435) | GI50 (A549 NSCLC) | GI50 (DU-145 prostate) | GI50 (HCC-2998 colon) | GI50 (HOP-62 NSCLC) | GI50 (HS 578T breast) | TGI (HS 578T breast) | GI50 (K-562 leukemia) | TGI (K-562 leukemia) | GI50 (MOLT-4 leukemia) | TGI (MOLT-4 leukemia)
1 | CC1OC(O[C@@H]2C=C3CC[C@@H]4[C@H](CC[C@]5(C)[C@@H](c6ccc(=O)oc6)CC[C@]45O)[C@@]3(C)CC2)C(O)C(OC2OC(CO)C(O)C(O)C2O)C1O (stereo partly drawn) | 0.000142 µM | 0.0111 µM | 0.000339 µM | 0.00534 µM and 0.0254 µM | 0.0422 µM | 0.00151 µM | 0.000437 µM | 0.182 µM and 0.039 µM | 0.000454 µM | 0.02 µM |  |  |  |  |  |  |  |  |  | 
2 | COc1ccc([I+]c2ccc(OC)cc2)cc1 | > 100 µM | > 100 µM |  | > 100 µM | > 100 µM | > 73.2 µM and 92 µM | 6.63 µM | > 100 µM | 14.7 µM | > 100 µM | 5.14 µM | 60.4 µM | 16 µM | 3.34 µM | 18.8 µM | > 100 µM | 2.74 µM | > 100 µM | 55.4 µM | > 100 µM
3 | COC(=O)C12Oc3ccc(-c4ccc5c(c4O)C(O)=C4C(=O)CC(C)C(O)C4(C(=O)OC)O5)c(O)c3C(O)=C1C(=O)CC(C)C2O (stereo not drawn) | > 100 µM | > 66 µM |  | 1.49 µM |  | 12.6 µM |  | > 100 µM |  | 1.96 µM |  |  |  |  |  | 3.86 µM |  | > 100 µM |  | 2.9 µM
4 | O=C1C(=C([O-])c2ccccc2)C(=O)c2ccccc21.O=C1C(=C([O-])c2ccccc2)C(=O)c2ccccc21.[Ni+2] | > 100 µM |  | 44.4 µM | > 100 µM | > 100 µM |  | 84.6 µM | > 100 µM |  |  | 52.5 µM |  | 58.9 µM |  |  |  |  |  |  | 
5 | COc1cc2c[n+](C)c3c4cc(OC)c(OCc5ccccc5)cc4c(OCc4ccccc4)cc3c2cc1OC | > 88.8 µM | 45.7 µM |  | > 100 µM | 32.4 µM | 39.3 µM |  | 23.8 µM |  | 10.5 µM |  |  |  |  |  |  |  | > 25 µM |  | 14.2 µM
6 | O=S(O)c1cc(Cl)c(O)c(Cl)c1 |  |  |  | > 100 µM | > 100 µM | > 100 µM |  | > 100 µM |  |  |  |  |  |  |  |  |  | > 100 µM |  | > 100 µM
7 | CC(=O)OCC1OC(N=[N+]=[N-])C(OC(C)=O)C(OC(C)=O)C1OC1OC(COC(C)=O)C(OC(C)=O)C(OC(C)=O)C1OC(C)=O (stereo not drawn) | > 100 µM |  |  | > 100 µM | > 100 µM |  |  | > 100 µM |  |  |  |  |  |  |  |  |  | > 100 µM |  | > 100 µM
8 | C=C1CCOC2(C(O)C(C)(O)CO)NC(=O)C1(O)NC2=O (stereo not drawn) | > 100 µM | > 100 µM |  | > 100 µM | > 100 µM | > 100 µM |  | > 100 µM |  | > 100 µM |  |  |  |  |  | > 100 µM |  | > 100 µM |  | > 100 µM
9 | COC(=O)c1c(O)ccc2c1c1c(n2Cc2cccc(C)c2)C(=O)c2ccccc2C1 | > 75 µM | > 75 µM |  | 10.4 µM |  | 51.6 µM |  |  |  | 42.7 µM |  |  |  |  |  | > 75 µM |  | > 75 µM |  | 44.5 µM
10 | C/C(=N\NC(N)=S)c1nc2ncccc2[nH]1 | > 100 µM | > 100 µM |  | > 100 µM | > 100 µM | > 100 µM |  | > 100 µM |  | > 100 µM |  |  |  |  |  | > 100 µM |  | > 100 µM |  | > 100 µM
11 | COc1cc(O)c(Cc2ccccc2O)c(O)c1C(=O)CCc1ccccc1 | 21.8 µM |  |  | 22.5 µM | 19.8 µM | 9.89 µM |  | 25.3 µM |  |  |  |  |  |  |  |  |  | 20 µM |  | 10.5 µM
12 | Cc1cc(O)c2c(c1)C(C1c3cccc(O)c3C(=O)c3c(O)cc(C)cc31)c1cccc(O)c1C2=O (stereo not drawn) | 0.97 µM | 18.6 µM |  | 4.15 µM | 16.6 µM | 3 µM |  | 4.29 µM |  | 10.7 µM |  |  |  |  |  | 33.3 µM |  | 11.7 µM |  | 12.5 µM
13 | Cn1c(=O)c2[nH]c(SC/C(=N/O)c3ccc(Br)cc3)nc2n(C)c1=O |  |  | 2.76 µM | > 100 µM |  | 5.09 µM |  |  |  |  |  |  |  | 2.3 µM | 3.05 µM | 7.9 µM | 25.9 µM | > 100 µM | 20.4 µM | 64 µM
14 | COc1ccc2c3/c(=C\c4ccc(N(C)C)cc4)c4ccccc4n3[n+](C)c2c1 |  | 1.81 µM | 0.11 µM | 4.16 µM | 0.31 µM |  | 0.255 µM | 1.24 µM | 0.484 µM | 1.83 µM | 0.236 µM | 0.236 µM | < 0.0378 µM |  | 0.162 µM |  | 0.0272 µM | > 40 µM | 0.0944 µM | 27.9 µM
